Test results taken from PubChem BioAssay (NCI).
Where “and” joins values, the source holds several entries; their conditions need not be identical. Identical values can stand only once.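 Cells were grown in 96-well plates and exposed to each compound for 48 hours at five concentrations; endpoints were interpolated linearly between bracketing concentrations, or set to the highest concentration if not reached. Abbreviation: GI50, concentration required for 50% inhibition of growth. The concentration for full growth arrest is given as TGI.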

Tests used:
Assay in all cases: DTP human tumour cell line panel, 48 h
786-0 renal = test system: 786-0 renal
MALME-3M melanoma = test system: MALME-3M melanoma
MDA-MB-231 breast = test system: MDA-MB-231 breast
PC-3 prostate = test system: PC-3 prostate
RPMI-8226 leukemia = test system: RPMI-8226 leukemia
TK-10 renal = test system: TK-10 renal
DLD-1 colon = test system: DLD-1 colon
DMS 114 small cell lung = test system: DMS 114 small cell lung
DMS 273 small cell lung = test system: DMS 273 small cell lung
HCC-2998 colon = test system: HCC-2998 colon
HOP-18 NSCLC = test system: HOP-18 NSCLC
KM20L2 colon = test system: KM20L2 colon
SNB-78 CNS = test system: SNB-78 CNS
XF 498 CNS = test system: XF 498 CNS

Structure (SMILES)	TGI (786-0 renal) [µM]	TGI (MALME-3M melanoma)	TGI (MDA-MB-231 breast)	TGI (PC-3 prostate)	TGI (RPMI-8226 leukemia) [µM]	TGI (TK-10 renal) [µM]	TGI (DLD-1 colon) [µM]	TGI (DMS 114 small cell lung) [µM]	TGI (DMS 273 small cell lung) [µM]	TGI (HCC-2998 colon) [µM]	TGI (HOP-18 NSCLC) [µM]	TGI (KM20L2 colon) [µM]	TGI (SNB-78 CNS) [µM]	TGI (XF 498 CNS) [µM]	GI50 (TK-10 renal) [nM]	GI50 (HCC-2998 colon) [nM]	GI50 (MALME-3M melanoma) [nM]	GI50 (MDA-MB-231 breast) [nM]	GI50 (PC-3 prostate) [nM]	GI50 (RPMI-8226 leukemia) [nM]
Nc1c(S(=O)(=O)O)cc(S(=O)(=O)O)c2ccc(N=Nc3ccccc3)c(O)c12	> 100	> 100 µM	> 100 µM	> 100 µM	> 100	> 100	–	–	–	–	–	–	–	–	–	–	–	–	–	–
Cc1cn(CC(=S)NCCc2c[nH]c3ccccc23)c(=O)[nH]c1=O	> 100	> 100 µM	> 100 µM	> 100 µM	> 100	–	–	–	–	–	–	–	–	–	–	–	–	–	–	–
CC1CC(C)(O)C2C3(C)CCCC2(COC3=O)C12CCC1(CCOC1=O)O2 (stereo not drawn)	–	> 250 µM	–	–	> 250	–	> 250	> 250	> 250	> 250	> 250	> 250	> 250	> 39.6	–	–	–	–	–	–
CC(=O)NC1C(OCc2ccccc2)OC(CO)C(O)C1OCC(=O)NC(C(=O)NC(CCC(=O)NCCCCCC(=O)Nc1ccc2c(c1)CN1C(=O)c3ccccc3C1=N2)C(N)=O)C(C)C (stereo not drawn)	38	46.5 µM	63.3 µM	70.8 µM	> 100	39.6	–	–	–	> 100	–	–	–	–	–	–	–	–	–	–
Cc1ccc(C(=O)NC2C(=O)NC(C(C)C)C(=O)N3CCCC3C(=O)N(C)CC(=O)N(C)C(C(C)C)C(=O)OC2C)c2c1Oc1c(c(C(=O)NC3C(=O)NC(C(C)C)C(=O)N4CCCC4C(=O)N(C)CC(=O)N(C)C(C(C)C)C(=O)OC3C)c3nc(-c4ccccc4)c(=O)oc3c1C)N2 (stereo not drawn)	–	0.195 µM and 0.0239 µM	0.221 µM and 0.129 µM	0.544 µM and 0.129 µM	0.0442	11.4	–	–	–	0.00428	–	–	–	–	13	–	–	–	–	–
c1ccc(-c2cc3nc4ccccc4nc3cc(-c3ccccc3)[nH][nH]2)cc1	> 100	> 100 µM	> 100 µM	> 100 µM	> 100	51.8	–	–	–	> 100	–	–	–	–	–	–	–	–	–	–
C=C1N(C)c2ccc(S(=O)(=O)c3ccc4c(c3)C(C)(C)C(=C)N4C)cc2C1(C)C	> 100	79 µM	> 100 µM	> 100 µM	35.5	> 100	–	–	–	> 100	–	–	–	–	–	–	–	–	–	–
COC(=O)[C@]12CC[C@H]3CN(S(=O)(=O)c4ccc(C)cc4)[C@H]([C@H]31)[C@H](c1ccco1)N2S(=O)(=O)c1ccc(C)cc1	> 100	58.3 µM	> 100 µM	> 100 µM	86.2	> 100	–	–	–	> 100	–	–	–	–	–	–	–	–	–	–
C[C@@]12CC[C@@H](O)C[C@@H]1CC[C@H]1[C@H]2CC[C@@]2(C)[C@H](c3ccc(=O)oc3)CC[C@@]12O	–	0.0174 µM	0.116 µM	0.0209 µM	–	0.028	–	–	–	0.142	–	–	–	–	< 10	12.4	< 10	19.2	< 10	< 10
C/C=C\C1OC1(C)c1cc(=O)c2c(C)cc3c(c2o1)C(=O)c1c(O)c(C2CC(C)(N(C)C)C(OC(C)=O)C(C)O2)cc(C2CC(N(C)C)C(O)C(C)O2)c1C3=O (stereo not drawn)	0.0158	0.0566 µM	0.0285 µM	0.0131 µM	0.0574	1.47	–	–	–	0.00646	–	–	–	–	–	–	–	–	–	–
CCn1c2ccccc2c2ccc(C3C4C(=O)N(c5cccc6ccccc56)C(=O)C4ON3C(C(N)=O)c3ccccc3)cc21 (stereo not drawn)	> 25	> 25 µM	> 25 µM	> 25 µM	–	21.8	–	–	–	–	–	–	–	–	–	–	–	–	–	–
CCCCCCC(=O)OC[n+]1ccc(-c2c(COC(=O)NC(C)C)c(COC(=O)NC(C)C)c3n2CCC3)cc1	> 100	> 100 µM	> 100 µM	> 100 µM	98.9	> 100	–	–	–	> 100	–	–	–	–	–	–	–	–	–	–
C/C(=C\[Si](C)(C)c1ccco1)C(C)(O)[C@H](C)O (stereo partly drawn)	> 100	> 100 µM	> 100 µM	> 100 µM	> 100	> 100	–	–	–	> 100	–	–	–	–	–	–	–	–	–	–
CC(C)CC(N)C(=O)NC(CNC(CCC(N)=O)C(=O)NC(CC(C)C)C(=O)NC(CC(C)C)C(=O)O)Cc1ccc2ccccc2c1 (stereo not drawn)	> 10	> 10 µM	> 10 µM	> 10 µM	> 10	> 10	–	–	–	> 10	–	–	–	–	–	–	–	–	–	–
CCCCCCCCCCCCCCCCCCN(C)CC(COC)OP(=O)([O-])OCC[N+](C)(C)C (stereo not drawn)	2.57	26.6 µM	–	1.47 µM	3.14	3.06	12.8	9.75	2.45	3.07	9.91	5.94	13.4	16.8	–	–	–	–	–	–
C=C(C)[C@@H]1CC[C@]2(C(=O)O)CC[C@]3(C)[C@H](CC[C@@H]4[C@@]5(C)C/C(=C/c6ccco6)C(=O)C(C)(C)[C@@H]5CC[C@]43C)[C@@H]12	–	–	–	–	–	46.9	–	–	–	–	–	–	–	–	3650	–	–	–	–	–
O=C(O)C1=C(CO)Oc2cc3c(cc2C1c1ccc2c(c1)OCO2)OCO3 (stereo not drawn)	–	> 100 µM	–	–	> 100	> 100	> 100	> 100	> 100	–	> 100	> 100	> 100	> 100	–	–	–	–	–	–
[O-]c1c2c(nn1-c1ccc(F)cc1)c1ccccc1c[n+]2Cc1ccccc1	–	25.6 µM	–	–	47.1	83	43.7	32.9	–	24.8	–	25.9	35.4	45.2	–	–	–	–	–	–

Structure (SMILES)	TGI (786-0 renal) [µM]	TGI (MALME-3M melanoma)	TGI (MDA-MB-231 breast)	TGI (PC-3 prostate)	TGI (RPMI-8226 leukemia) [µM]	TGI (TK-10 renal) [µM]	TGI (DLD-1 colon) [µM]	TGI (DMS 114 small cell lung) [µM]	TGI (DMS 273 small cell lung) [µM]	TGI (HCC-2998 colon) [µM]	TGI (HOP-18 NSCLC) [µM]	TGI (KM20L2 colon) [µM]	TGI (SNB-78 CNS) [µM]	TGI (XF 498 CNS) [µM]	GI50 (TK-10 renal) [nM]	GI50 (HCC-2998 colon) [nM]	GI50 (MALME-3M melanoma) [nM]	GI50 (MDA-MB-231 breast) [nM]	GI50 (PC-3 prostate) [nM]	GI50 (RPMI-8226 leukemia) [nM]
CN(C)CCC(=O)[C@@]1(O)CC[C@H]2[C@@H]3CC=C4C[C@@H](O)CC[C@]4(C)[C@H]3CC[C@@]21C	13.6	28.8 µM	32.8 µM	26.2 µM	7.01	6.96	–	–	–	60	–	–	–	–	–	–	–	–	–	–
O=C(c1ccccc1)c1ccc(N2C(=O)/C(=C/c3cccc(Oc4ccccc4)c3)N=C2c2ccccc2)c(N2C(=O)/C(=C/c3cccc(Oc4ccccc4)c3)N=C2c2ccccc2)c1	> 100	> 100 µM	> 100 µM	> 100 µM	96.4	79.4	–	–	–	48.8	–	–	–	–	–	–	–	–	–	–
NC1=NC(c2ccc(Cl)cc2)=CC(c2cccc(Cl)c2)S1 (stereo not drawn)	> 100	> 100 µM	–	> 100 µM	44	60.7	–	–	–	80.9	–	–	–	–	–	–	–	–	–	–
CCCCC(CC)C(=O)Oc1ccc(C(=O)c2ccccc2)c(O)c1 (stereo not drawn)	–	> 100 µM	> 100 µM	> 100 µM	> 100	> 100	–	–	–	> 100	–	–	–	–	–	–	–	–	–	–
CCOC(=O)N1c2ccccc2N(C(=O)OCC)C1CC(=O)/C=C/c1ccccc1	10.6	18.9 µM	> 100 µM	19.8 µM	26.6	14.4	–	–	–	10.6	–	–	–	–	–	–	–	–	–	–
CC(C)=CCC/C(C)=C/Cc1c2c(c3oc(-c4ccc(O)c(O)c4)c(O)c(=O)c3c1O)C=CC(C)(C)O2	7.92	4.01 µM	14.5 µM	12.5 µM	9.93	11.2	–	–	–	–	–	–	–	–	–	–	–	–	–	–
O=C1c2cc3c(cc2[C@@H]2C(O)[C@H]4O[C@H]4C4CCN1C42)OCO3 (stereo partly drawn)	–	> 37.5 µM	–	–	> 37.5	> 37.5	–	> 37.5	> 37.5	> 37.5	–	> 37.5	–	> 37.5	–	–	–	–	–	–
Cc1csc2nc(-c3cc([N+](=O)[O-])c(Cl)cc3Cl)c(/C=N/N=C(N)N)n12	49.3	35.3 µM	28 µM	38.9 µM	56.5	32.4	–	–	–	22.1	–	–	–	–	–	–	–	–	–	–
CC(C)N(CC(=O)O)CC(=O)O	> 100	> 100 µM	> 100 µM	> 100 µM	> 100	> 100	–	–	–	> 100	–	–	–	–	–	–	–	–	–	–
CO[P@@]1(=O)O[C@@H](c2ccccc2)[C@H](O)[C@@]1(O)c1ccccc1	> 100	> 100 µM	> 100 µM	> 100 µM	–	> 100	–	–	–	–	–	–	–	–	–	–	–	–	–	–
Nc1[nH]c(=O)nc2c1cnn2COCCO	–	> 100 µM	–	–	> 100	99.9	> 100	> 100	> 100	–	> 100	6.85	> 100	> 100	–	–	–	–	–	–
O=P1(Oc2ccc(Cl)cc2Cl)Oc2cc3ccccc3cc2O1	–	> 100 µM	–	–	> 60.1	–	> 100	> 89.3	> 100	59.6	> 100	> 100	> 100	> 100	–	–	–	–	–	–
CCOC(=O)c1sc2nc(SC)nc3c2c1NC(=O)CN3c1ccc(F)cc1	–	> 100 µM	> 100 µM	37 µM	> 100	> 100	–	–	–	> 100	–	–	–	–	–	–	–	–	–	–
CC1(C=O)CC(CCc2ccccc2)NC1Cc1ccc(O)cc1 (stereo not drawn)	29.2	–	26.5 µM	26.7 µM	40.7	31.8	–	–	–	24.9	–	–	–	–	–	–	–	–	–	–
COc1cc2cc(C(=O)N3CC(CCl)c4ccc(NO)cc43)[nH]c2c(OC)c1OC (stereo not drawn)	–	0.317 µM	–	2.05 µM	0.442	> 100	–	–	–	1.07	–	–	–	–	–	–	–	–	–	–
CCOC(=O)C(C(=O)OCC)c1cc(-c2cc3ccccc3o2)oc(=O)c1C#N	–	55.7 µM	–	–	> 100	52.1	–	67.1	60.1	46.9	65.4	37.5	73.4	36.3	–	–	–	–	–	–
Nc1ccc(Oc2ccc(C34CC5C6CC7(c8ccc(Oc9ccc(N)cc9)cc8)CC5C(C3)C(C7)C6C4)cc2)cc1	> 100	> 100 µM	> 100 µM	> 100 µM	> 100	> 100	–	–	–	–	–	–	–	–	–	–	–	–	–	–
